Results: US20060110332A1, “Agent for medicamentous treatment of acute and chronic pain” (Max-Delbruck-Centrum Fur Molekulare Medizin, priority 2002, published 2006)
pEC50: −log10 of the molar value. Entries after “also recorded” stand apart in the source; their conditions may differ. Read-outs that look alike come from different tables or passages of the source.

Columns and labels:
[1] = test system: cutaneous mechanotransduction; test: Skin-nerve preparation (saphenous nerve), mechanical sensitivity of the skin; set-up: species or system mice
Method: The use of the skin-nerve preparation, which the present invention is based on, allows for the electrophysiological analysis of the different neurofibre types which innervate the skin (Koltzenburg et al., 1997, see above). The saphenous nerve and the region of the skin that it innervates are prepared from freshly killed mice and are mounted in a bath of physiological buffer. After mechanical or electrical stimulation of the skin, the nerve signals can be received directly from the nerve. For determining the effective concentration, tests were carried out with different concentrations of mibefradil in the bath solution. The EC50 of mibefradil on cells is between 0.1 and 1 μM. […] The unspecific blockade at high concentrations may be due to the fact that mibefradil, at high concentrations, has a very unspecific effect on other ubiquitously expressed calcium channels. Such blocking is lost at lower concentrations. The blocking of some AM mechanoreceptors also at low concentrations of mibefradil could have two reasons. The first possibility is that AM mechanoreceptors, too, express CaV3.2. This, however, is not very likely based on the findings obtained by the in-situ hybridisation within the framework of the present invention. It may rather be assumed that a different isotype, i.e. CaV3.3 is expressed in AM mechanoreceptors. It was not possible to detect CaV3.3 in in-situ hybridisation experiments in spinal ganglia, but other groups reported the expression of this calcium channel in medium-size cells. […] To sum up, it is concluded that the calcium channel CaV3.2 in spinal ganglia specifically expresses in D-hair mechanoreceptors and is therefore indispensable for its function. The discovery that the voltage-dependent calcium channels are involved in the transduction of mechanical stimuli by nociceptive and non-nociceptive neurons is new. Due to their physiological properties together with their specific localisation on the site of the mechanotransduction in the periphery, the calcium channels are ideal targets for pain therapy, which the invention is based on.

D-hair mechanoreceptors = test: Skin-nerve preparation (saphenous nerve), D-hair mechanoreceptors; set-up: species or system mice; details: 3 μM mibefradil in the bath solution
Method: (§1) The use of the skin-nerve preparation, which the present invention is based on, allows for the electrophysiological analysis of the different neurofibre types which innervate the skin (Koltzenburg et al., 1997, see above). The saphenous nerve and the region of the skin that it innervates are prepared from freshly killed mice and are mounted in a bath of physiological buffer. After mechanical or electrical stimulation of the skin, the nerve signals can be received directly from the nerve. For determining the effective concentration, tests were carried out with different concentrations of mibefradil in the bath solution. The EC50 of mibefradil on cells is between 0.1 and 1 μM. […] The unspecific blockade at high concentrations may be due to the fact that mibefradil, at high concentrations, has a very unspecific effect on other ubiquitously expressed calcium channels. Such blocking is lost at lower concentrations. The blocking of some AM mechanoreceptors also at low concentrations of mibefradil could have two reasons. The first possibility is that AM mechanoreceptors, too, express CaV3.2. This, however, is not very likely based on the findings obtained by the in-situ hybridisation within the framework of the present invention. It may rather be assumed that a different isotype, i.e. CaV3.3 is expressed in AM mechanoreceptors. […]

AM mechanoreceptors = test: Skin-nerve preparation (saphenous nerve), AM mechanoreceptors; set-up: species or system mice; details: 3 μM mibefradil in the bath solution
Method: as §1

CaV3.1 = CaV3.1 (Rattus norvegicus, UniProt O54898); details: compared with CaV3.2; cited from earlier work
CaV3.3 = details: compared with CaV3.2, cited from earlier work
L-type calcium channels = details: cited from earlier work
[2] = reason for removal from the market; cited from earlier work
T-type calcium channels = details: cited from earlier work
CaV3.2 = CaV3.2 (Homo sapiens, UniProt O95180); details: cited from earlier work
living tissue = details: cited from earlier work

Sequence of CaV3.2 (O95180 whole entry): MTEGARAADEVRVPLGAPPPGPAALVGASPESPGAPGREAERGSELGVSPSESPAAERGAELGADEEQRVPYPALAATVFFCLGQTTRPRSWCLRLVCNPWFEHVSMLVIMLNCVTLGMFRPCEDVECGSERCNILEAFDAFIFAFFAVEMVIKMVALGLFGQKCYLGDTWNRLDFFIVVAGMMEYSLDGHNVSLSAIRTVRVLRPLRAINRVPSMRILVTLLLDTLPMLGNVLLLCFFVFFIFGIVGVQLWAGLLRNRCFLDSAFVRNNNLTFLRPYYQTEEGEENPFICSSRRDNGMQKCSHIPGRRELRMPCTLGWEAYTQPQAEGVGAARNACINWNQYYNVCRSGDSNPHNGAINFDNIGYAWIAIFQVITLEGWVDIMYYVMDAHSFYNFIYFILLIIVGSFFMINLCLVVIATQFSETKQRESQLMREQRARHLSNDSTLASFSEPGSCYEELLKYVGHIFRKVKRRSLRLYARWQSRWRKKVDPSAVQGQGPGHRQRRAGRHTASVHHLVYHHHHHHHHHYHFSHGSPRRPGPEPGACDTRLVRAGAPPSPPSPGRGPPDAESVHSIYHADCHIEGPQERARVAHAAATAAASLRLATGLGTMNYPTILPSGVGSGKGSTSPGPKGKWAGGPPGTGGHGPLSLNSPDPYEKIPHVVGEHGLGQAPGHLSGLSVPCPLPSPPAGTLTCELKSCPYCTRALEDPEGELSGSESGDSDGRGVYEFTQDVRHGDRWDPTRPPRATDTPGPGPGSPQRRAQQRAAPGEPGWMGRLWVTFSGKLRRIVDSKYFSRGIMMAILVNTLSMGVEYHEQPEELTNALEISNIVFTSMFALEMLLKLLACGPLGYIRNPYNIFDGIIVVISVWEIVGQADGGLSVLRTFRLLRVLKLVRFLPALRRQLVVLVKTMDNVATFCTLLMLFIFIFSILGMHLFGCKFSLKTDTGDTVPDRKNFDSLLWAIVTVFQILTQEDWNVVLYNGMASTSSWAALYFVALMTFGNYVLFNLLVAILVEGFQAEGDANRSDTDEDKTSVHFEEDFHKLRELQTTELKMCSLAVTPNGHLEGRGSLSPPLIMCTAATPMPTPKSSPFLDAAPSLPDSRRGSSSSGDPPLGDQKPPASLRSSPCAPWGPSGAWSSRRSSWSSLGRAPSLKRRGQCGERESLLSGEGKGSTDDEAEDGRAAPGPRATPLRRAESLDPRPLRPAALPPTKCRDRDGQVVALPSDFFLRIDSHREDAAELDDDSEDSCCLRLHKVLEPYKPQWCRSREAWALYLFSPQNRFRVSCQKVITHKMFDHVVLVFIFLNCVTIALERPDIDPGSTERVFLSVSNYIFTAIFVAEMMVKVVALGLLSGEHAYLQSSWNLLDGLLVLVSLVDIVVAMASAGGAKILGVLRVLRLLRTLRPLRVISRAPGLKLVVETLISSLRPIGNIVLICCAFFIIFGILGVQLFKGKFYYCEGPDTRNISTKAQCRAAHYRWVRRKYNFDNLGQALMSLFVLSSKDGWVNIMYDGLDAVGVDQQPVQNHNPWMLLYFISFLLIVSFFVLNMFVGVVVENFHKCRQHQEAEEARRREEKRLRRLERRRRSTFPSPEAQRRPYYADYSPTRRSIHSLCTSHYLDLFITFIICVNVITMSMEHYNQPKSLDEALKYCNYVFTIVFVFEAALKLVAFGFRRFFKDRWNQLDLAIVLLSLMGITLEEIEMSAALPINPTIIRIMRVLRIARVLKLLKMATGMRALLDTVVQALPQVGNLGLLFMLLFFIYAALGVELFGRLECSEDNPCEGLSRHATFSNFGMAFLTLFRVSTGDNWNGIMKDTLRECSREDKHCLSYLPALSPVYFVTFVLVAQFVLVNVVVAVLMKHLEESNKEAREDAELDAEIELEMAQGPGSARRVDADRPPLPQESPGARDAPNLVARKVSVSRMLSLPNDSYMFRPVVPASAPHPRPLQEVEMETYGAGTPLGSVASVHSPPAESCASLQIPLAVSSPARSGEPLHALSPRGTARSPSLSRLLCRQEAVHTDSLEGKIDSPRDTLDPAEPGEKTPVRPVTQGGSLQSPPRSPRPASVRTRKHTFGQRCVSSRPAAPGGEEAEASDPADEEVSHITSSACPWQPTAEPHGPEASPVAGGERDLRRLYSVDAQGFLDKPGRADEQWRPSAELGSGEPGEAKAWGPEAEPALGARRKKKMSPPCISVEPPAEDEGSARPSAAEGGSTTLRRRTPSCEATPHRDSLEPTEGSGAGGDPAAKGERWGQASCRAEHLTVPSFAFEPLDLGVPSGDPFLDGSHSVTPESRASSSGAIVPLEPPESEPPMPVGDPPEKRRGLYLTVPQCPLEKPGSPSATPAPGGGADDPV
Sequence of CaV3.1 (O54898 whole entry): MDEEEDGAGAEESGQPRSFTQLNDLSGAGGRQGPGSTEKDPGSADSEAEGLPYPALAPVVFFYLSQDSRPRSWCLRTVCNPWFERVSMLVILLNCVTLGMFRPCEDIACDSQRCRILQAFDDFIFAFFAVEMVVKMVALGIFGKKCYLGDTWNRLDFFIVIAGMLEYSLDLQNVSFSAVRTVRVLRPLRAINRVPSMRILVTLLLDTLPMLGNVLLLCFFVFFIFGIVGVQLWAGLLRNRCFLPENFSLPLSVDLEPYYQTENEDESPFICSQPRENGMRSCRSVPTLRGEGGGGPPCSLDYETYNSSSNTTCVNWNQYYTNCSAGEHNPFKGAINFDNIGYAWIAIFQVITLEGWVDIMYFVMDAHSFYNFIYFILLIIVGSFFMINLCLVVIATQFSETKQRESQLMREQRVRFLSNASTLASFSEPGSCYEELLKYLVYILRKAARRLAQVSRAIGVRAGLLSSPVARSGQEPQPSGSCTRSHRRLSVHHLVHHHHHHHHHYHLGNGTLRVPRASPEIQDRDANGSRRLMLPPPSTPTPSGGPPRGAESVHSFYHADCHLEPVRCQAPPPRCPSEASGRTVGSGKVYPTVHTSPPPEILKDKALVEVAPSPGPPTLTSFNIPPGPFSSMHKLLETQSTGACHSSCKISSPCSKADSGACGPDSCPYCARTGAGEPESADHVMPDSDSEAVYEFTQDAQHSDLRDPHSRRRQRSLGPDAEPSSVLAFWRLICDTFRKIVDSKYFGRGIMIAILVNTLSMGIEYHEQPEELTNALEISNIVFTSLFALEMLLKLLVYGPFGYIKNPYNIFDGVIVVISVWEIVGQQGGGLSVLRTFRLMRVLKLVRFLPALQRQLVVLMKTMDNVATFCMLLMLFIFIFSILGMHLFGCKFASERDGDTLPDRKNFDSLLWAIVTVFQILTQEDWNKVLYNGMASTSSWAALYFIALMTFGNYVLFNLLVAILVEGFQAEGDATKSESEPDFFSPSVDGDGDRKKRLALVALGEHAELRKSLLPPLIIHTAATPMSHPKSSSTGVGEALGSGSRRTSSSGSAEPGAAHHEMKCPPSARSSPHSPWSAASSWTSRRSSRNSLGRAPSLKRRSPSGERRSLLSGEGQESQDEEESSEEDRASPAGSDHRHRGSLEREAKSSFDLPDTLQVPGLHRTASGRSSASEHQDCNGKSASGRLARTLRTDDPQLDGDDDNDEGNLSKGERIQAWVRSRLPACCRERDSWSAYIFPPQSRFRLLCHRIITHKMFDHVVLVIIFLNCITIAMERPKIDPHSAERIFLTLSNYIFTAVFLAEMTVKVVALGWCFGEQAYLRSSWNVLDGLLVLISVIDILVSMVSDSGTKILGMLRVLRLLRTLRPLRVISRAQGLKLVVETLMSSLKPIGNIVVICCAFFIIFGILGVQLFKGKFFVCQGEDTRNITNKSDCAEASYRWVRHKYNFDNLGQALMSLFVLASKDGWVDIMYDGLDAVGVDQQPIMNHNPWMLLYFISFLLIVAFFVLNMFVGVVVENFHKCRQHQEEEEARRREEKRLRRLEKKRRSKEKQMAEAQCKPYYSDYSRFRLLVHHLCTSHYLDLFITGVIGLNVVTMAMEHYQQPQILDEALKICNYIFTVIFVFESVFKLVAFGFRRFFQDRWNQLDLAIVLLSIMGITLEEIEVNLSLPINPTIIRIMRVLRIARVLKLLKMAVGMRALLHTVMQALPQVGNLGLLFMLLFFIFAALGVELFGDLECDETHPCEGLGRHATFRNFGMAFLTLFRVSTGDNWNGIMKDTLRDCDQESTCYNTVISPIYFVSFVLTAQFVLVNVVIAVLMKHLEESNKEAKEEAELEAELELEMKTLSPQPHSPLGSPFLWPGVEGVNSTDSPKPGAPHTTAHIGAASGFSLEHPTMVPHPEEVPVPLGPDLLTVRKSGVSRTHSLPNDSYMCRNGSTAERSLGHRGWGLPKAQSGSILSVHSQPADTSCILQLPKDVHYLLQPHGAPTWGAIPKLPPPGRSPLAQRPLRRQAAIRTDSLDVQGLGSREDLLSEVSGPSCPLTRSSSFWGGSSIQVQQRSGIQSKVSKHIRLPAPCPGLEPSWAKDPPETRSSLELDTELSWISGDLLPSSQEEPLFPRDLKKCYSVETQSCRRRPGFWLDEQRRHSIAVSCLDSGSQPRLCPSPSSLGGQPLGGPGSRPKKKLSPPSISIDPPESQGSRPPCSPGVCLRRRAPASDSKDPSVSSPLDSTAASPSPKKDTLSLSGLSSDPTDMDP

Structure (SMILES)	blocking of mechanotransduction ([1]; higher concentrations of mibefradil)	inhibition of cutaneous mechanotransduction ([1]; low concentrations (25 μM or less))	blocking of the mechanical sensitivity ([1]; more than 25 μM mibefradil in the bath solution)	inhibition of D-hair mechanoreceptors (D-hair mechanoreceptors)	inhibition of AM mechanoreceptors (AM mechanoreceptors)	effect on T-type isotype CaV3.1 (CaV3.1)	effect / semi-effective concentration on CaV3.3 (CaV3.3)	effect / semi-effective concentration on CaV3.3 (CaV3.3; listed as Mibefradil)	concentration blocking L-type relative to that necessary for T-type blocking (L-type calcium channels)	interaction with other medicaments [2]	selectivity for T-type calcium channels (T-type calcium channels)	EC50 on CaV3.2 relative to the other isotypes (CaV3.2; CaV3.2 versus other T-type isotypes) [times]	pEC50 (CaV3.2; read-out: EC50 on CaV3.2)	cytotoxicity (living tissue)
COCC(=O)O[C@]1(CCN(C)CCCc2nc3ccccc3[nH]2)CCc2cc(F)ccc2[C@@H]1C(C)C [mibefradil]	complex blocking of other mechanoreceptors; also recorded: blocks not only the D-hair mechanotransduction but also the entire mechanotransduction	virtually inhibits the entire cutaneous mechanotransduction	almost complete and unspecific blocking of the mechanical sensitivity	specifically inhibited	in part, also AM mechanoreceptors are specifically inhibited	almost identical effect	almost identical	almost identical effect	about 10 fold	severe interaction with other medicaments	relatively high selectivity for T-type calcium channels			
[Ni] [nickel]												70	~5.00	cytotoxic
